≈ marks a conversion by molar mass, not a printed value. Calls of active or inactive are those of the source. No cut-off for these calls is given here.
Key:
[1] = target: T1, DNA topoisomerase 1 (Homo sapiens) (UniProt P11387); experiment: (§1) Inhibition of human topoisomerase 1-mediated relaxation of supercoiled pBR322 DNA
T1 sequence (whole entry): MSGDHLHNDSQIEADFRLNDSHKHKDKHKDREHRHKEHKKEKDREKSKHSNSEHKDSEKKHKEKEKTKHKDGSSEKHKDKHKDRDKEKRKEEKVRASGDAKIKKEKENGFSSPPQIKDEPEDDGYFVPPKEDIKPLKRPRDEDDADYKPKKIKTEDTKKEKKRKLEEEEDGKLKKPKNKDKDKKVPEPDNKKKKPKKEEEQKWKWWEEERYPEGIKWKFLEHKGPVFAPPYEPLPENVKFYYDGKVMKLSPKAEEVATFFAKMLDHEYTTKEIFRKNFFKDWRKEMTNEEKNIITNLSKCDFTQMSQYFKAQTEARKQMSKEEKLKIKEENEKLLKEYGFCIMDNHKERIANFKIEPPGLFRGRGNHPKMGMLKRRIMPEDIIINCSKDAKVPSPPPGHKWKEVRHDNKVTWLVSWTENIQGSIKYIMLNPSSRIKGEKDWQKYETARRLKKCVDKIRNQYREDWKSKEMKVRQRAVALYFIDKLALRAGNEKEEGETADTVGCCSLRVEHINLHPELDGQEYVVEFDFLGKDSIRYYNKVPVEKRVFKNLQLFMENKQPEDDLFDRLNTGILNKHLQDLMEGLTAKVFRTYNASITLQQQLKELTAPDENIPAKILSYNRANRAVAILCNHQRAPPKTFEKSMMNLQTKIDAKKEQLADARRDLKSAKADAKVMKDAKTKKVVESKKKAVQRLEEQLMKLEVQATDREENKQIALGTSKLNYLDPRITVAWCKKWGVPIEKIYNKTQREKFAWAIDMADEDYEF

[2] = test system: Nucleic Acid; experiment: Binding affinity to calf thymus DNA assessed as change in absorption spectra at increasing concentration at pH 8 by UV-Vis spectra analysis; type: nucleic-acid assay; settings: Bos taurus
[3] = target: T2, DNA topoisomerase 2-alpha (Homo sapiens, UniProt P11388); experiment: Inhibition of human topoisomerase 2alpha-mediated relaxation of supercoiled pBR322 DNA
[4] = test system: Escherichia coli; experiment: Inhibition of Escherichia coli topoisomerase 4 kinetoplast DNA decatenation activity assessed as formation of monomeric circle from DNA at pH 8 after 1 hr
[5] = target: T3, DNA topoisomerase 1 (Homo sapiens, UniProt P11387); experiment: as §1
T3 sequence (P11387 whole entry): T1 sequence (whole entry)

[6] = Inhibition of Escherichia coli DNA topoisomerase 1-mediated relaxation of supercoiled pBR322 DNA
[7] = test system: Salmonella typhi; experiment: Antibacterial activity against Salmonella typhi by agar dilution method; type: functional, Salmonella enterica subsp. enterica serovar Typhi; settings: Salmonella enterica
[8] = test system: HL-60; experiment: Cytotoxicity against human HL60 cells after 72 hrs by MTT assay; type: functional, cell-based; settings: HL-60, 72 h
[9] = test system: Staphylococcus epidermidis; experiment: Antibacterial activity against Staphylococcus epidermidis by agar dilution method; type: functional
[10] = test system: Escherichia coli; experiment: Stabilization of Escherichia coli DNA topoisomerase 1-DNA cleavage complex assessed as cleavage enhancement using 32P-TAACCCTGAAAGATTATGCAATGCGCTTTGGG ssDNA as substrate at 10 to 200 uM at pH 8 after 20 mins by agarose gel electrophoresis relative to control
[11] = test system: MCF7; experiment: Cytotoxicity against human MCF7 cells after 72 hrs by MTT assay; type: functional, cell-based; settings: MCF7, 72 h
[12] = Inhibition of Escherichia coli DNA topoisomerase 4-mediated relaxation of supercoiled pBR322 DNA
[13] = target: T2, DNA topoisomerase 2-alpha; experiment: Inhibition of human topoisomerase 2alpha kinetoplast DNA decatenation activity assessed as formation of monomeric circle from DNA at pH 8 after 1 hr

T2 sequence (P11388 whole entry): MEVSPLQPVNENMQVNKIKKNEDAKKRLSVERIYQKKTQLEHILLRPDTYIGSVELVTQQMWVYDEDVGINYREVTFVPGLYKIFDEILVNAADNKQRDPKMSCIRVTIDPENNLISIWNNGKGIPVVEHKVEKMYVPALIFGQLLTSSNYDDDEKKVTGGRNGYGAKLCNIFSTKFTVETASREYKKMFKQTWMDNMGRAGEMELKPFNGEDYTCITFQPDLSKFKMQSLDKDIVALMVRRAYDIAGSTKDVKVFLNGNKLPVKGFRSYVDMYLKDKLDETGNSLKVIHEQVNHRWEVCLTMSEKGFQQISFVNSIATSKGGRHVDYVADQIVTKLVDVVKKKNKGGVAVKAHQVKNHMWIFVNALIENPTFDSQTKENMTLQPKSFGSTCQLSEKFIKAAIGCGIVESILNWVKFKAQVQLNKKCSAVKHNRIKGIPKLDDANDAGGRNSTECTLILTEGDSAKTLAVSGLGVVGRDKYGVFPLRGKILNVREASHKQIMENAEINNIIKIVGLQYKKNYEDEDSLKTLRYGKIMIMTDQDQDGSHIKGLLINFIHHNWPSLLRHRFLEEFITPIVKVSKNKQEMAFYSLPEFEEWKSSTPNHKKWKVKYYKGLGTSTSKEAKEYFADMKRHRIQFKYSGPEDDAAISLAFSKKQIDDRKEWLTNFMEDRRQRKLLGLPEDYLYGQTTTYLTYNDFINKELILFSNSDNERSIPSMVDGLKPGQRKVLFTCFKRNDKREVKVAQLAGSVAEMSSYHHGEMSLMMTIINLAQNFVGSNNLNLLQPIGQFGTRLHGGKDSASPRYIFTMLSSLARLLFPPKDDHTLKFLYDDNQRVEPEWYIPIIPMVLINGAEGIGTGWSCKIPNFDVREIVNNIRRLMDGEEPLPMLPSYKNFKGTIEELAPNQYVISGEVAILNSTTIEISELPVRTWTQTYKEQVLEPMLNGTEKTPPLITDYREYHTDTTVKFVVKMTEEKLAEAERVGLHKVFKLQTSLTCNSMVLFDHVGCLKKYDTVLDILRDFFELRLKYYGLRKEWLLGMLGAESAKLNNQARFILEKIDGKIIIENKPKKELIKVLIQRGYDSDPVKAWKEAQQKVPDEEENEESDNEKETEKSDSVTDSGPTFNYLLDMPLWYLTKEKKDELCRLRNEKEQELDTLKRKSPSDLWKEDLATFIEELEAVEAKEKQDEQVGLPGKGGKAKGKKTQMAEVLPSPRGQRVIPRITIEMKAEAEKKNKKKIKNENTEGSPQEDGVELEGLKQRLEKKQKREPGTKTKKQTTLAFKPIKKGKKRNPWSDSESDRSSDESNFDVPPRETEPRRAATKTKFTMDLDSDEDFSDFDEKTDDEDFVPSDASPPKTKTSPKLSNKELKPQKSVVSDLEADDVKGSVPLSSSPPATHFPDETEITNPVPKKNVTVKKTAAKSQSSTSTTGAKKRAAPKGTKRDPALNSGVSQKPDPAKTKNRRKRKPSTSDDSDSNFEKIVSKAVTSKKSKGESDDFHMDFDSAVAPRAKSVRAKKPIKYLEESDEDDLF

With `O[C@@H]1C=C[C@]23CCN(Cc4cc5c(cc42)OCO5)[C@H]3C1` the inhibition [1] was “inactive”, the Activity [2] was “inactive” and the inhibition [3] was “inactive”.

For `O[C@H]1[C@H]2c3cc4c(cc3CN3CCC(=C[C@@H]1O)[C@H]23)OCO4`, the inhibition [1] was “inactive”, the Activity [2] was “inactive” and the inhibition [3] was “inactive”.

With `[O-]c1cc2c3c(c1)c1cc4c(cc1c[n+]3CC2)OCO4` [UNGEREMINE] the inhibition [4] was “inactive”, the IC50 [5] was 6.1 µM and the IC50 [6] was 15 µM. For the same compound, the Activity [2] was “Active”, the MIC [7] was 125 µg/mL (≈ 471 µM) and the IC50 [8] was 1.4 µM. For the same compound, the MIC [9] was 31.2 µg/mL (≈ 118 µM), the fold change (FC) [10] was 250 and the IC50 [11] was greater than 40 µM. The IC50 [3] was 25.8 µM, the IC50 [12] was 7.3 µM and the inhibition [13] was “Active”.
